Test results taken from patent publication US11976074B1, “Crystalline salts of Linsitinib” (Sling Therapeutics, Inc., priority 2023, dated 2024).
One block for each compound: values may come before it.

Tests used:
Type in all cases: physicochemical
[1] = Physical stability on capped storage at room temperature (PXRD reanalysis)
Experimental: A theoretical hemi-hydrate for a mono-edisylate salt of linsitinib would contain 1.4% water. Additional endotherms are observed at 252 and 278° C. that are likely due to melt/decomposition based on the corresponding weight loss in the TGA beginning around 244° C.
HCl 1 was generated via evaporation of a solution containing 1:1 linsitinib:acid in tetrahydrofuran (THF)/water at 70° C. […] The weight loss is likely due to water and potentially evolution of hydrochloric acid.
The sample was initially analyzed by PXRD and stored at ambient temperature in a capped vial. (FIG. 85).

[2] = pH-solubility of linsitinib free base and selected salts (pH 1.5 to 6.5, overnight equilibration, HPLC); details: for solubility: overnight equilibration; for Final pH: after overnight equilibration
Experimental: The pH-solubility of selected salts (Phosphate 1, L-Malate 1, Esylate 1, and Esylate 2) was evaluated and compared with linsitinib free base. The solubility analysis was conducted in a manner consistent with a previous study that was performed with linsitinib free base. Aqueous solutions were prepared between pH 1.5 and pH 6.5 in 0.5 pH unit increments via titration of the solution using NaOH and HCl. For each salt or the free base, an attempt was made to reach saturation in each of the solutions by adding sufficient material to the solution such that excess solids remained. If saturation was achieved, the pH of the solution was measured and adjusted to the target pH and additional material was added if needed. The samples were then equilibrated overnight. The final pH of the solution was measured, the solids were filtered and selected samples were analyzed by PXRD. The concentration of linsitinib in the filtrate was quantitated by HPLC (diluted as needed). In some cases, significant drift (+1 pH unit or more) of the final pH from the target pH was observed after the overnight equilibration.
The pH-solubility data is shown graphically in FIG. 89. […] Indeed, it should be noted that in the majority of the low pH systems, higher initial dissolution/solubility was observed followed by precipitation of the material from solution upon longer equilibration.

[3] = Equilibrium solubility in bio-relevant media (FaSSGF pH 1.6, FaSSIF pH 6.5); details: for Solubility compared with the free base: in words
From the text: In addition to the pH-solubility data, a comparison of the equilibrium solubility of linsitinib free base and salts in two bio-relevant media (Table 28), fasted state simulated gastric fluid (FaSSGF pH 1.6) and intestinal fluid (FaSSIF pH 6.5) was completed. […] A saturated solution of Esylate 1 was not achieved during this study and therefore the equilibrium solubility could be higher than determined. It should be noted that variability of almost a full pH unit was noted among the samples making a direct comparison more challenging.

[4] = Water activity slurries of Esylate 2 seeded with Esylate 1; details: THF/H2O, aw 0.45-0.91, RT
From the text: Water activity slurries were set-up with Esylate 2 and seeds of Esylate 1 to explore the presence of a potential hydrate and any associated critical water activity (Table 12). Four slurries were set-up in varying ratios of THF and H2O corresponding to 0.45, 0.63, 0.78 and 0.91 aw respectively.

[5] = Interconversion slurries of esylate forms; details: 4° C., RT, 60° C.; MEK and 2:1 EtOH:HEP
Experimental: To find the thermodynamically stable form of the mono-salt, interconversion slurries were set-up at three different temperatures in two different solvent systems between Esylates 1, 2, 3 and Esylate 4+Esylate 5 (Table 11). A sample of Esylate 4+Esylate 5 was included as part of the interconversion slurry in-spite of Esylate 4 being a solvate as Esylate 5 could not be isolated as a separate pure phase until the drying experiment was carried out on Esylate 4 towards the end of the study. Slurries were set-up at 4° C., RT and at 60° C. in MEK and 2:1 EtOH:HEP, resulting in a total of six experiments which were run for a total of 7 days.

[6] = Polymorph screen of linsitinib malate (PXRD/XRPD result); details: solvent and conditions per sample no.; for PXRD Results: polymorph screen of linsitinib malate, slurry, cooling, precipitation or lyophilization
Experimental: A Rigaku SmartLab X-Ray Diffractometer was configured in Bragg-Brentano reflection geometry equipped with a beam stop and knife edge to reduce incident beam and air scatter.
A polymorph screen of linsitinib malate was conducted. Experiments were designed to target thermodynamically stable forms and therefore utilized techniques such as long-term slurry, cooling, anti-solvent addition, and evaporation. Reaction crystallization experiments with linsitinib free base and L-malic acid were also conducted. Additionally, non-crystalline material was used as an alternative starting material as this can provide access to polymorphs that would not be accessible from crystalline starting material.

[7] = Thermogravimetric analysis (TGA)
Experimental: The TG analysis was carried out using a TA Instruments […] Discovery Series instrument. The instrument balance was calibrated using class M weights and the temperature calibration was performed using alumel. The nitrogen purge was 10 mL per minute at the balance and 25 mL per minute at the furnace. The sample was placed into a pre-tared platinum pan and heated from approximately 25° C. to 300° C. at a rate of 10° C. per minute.

[8] = aqueous solution, pH 4, aqueous buffer, thermodynamic from solid, target pH 4.0, * = clear solution, not equilibrium value, read-out: Solubility
[9] = aqueous solution, pH 4.5, aqueous buffer, thermodynamic from solid, target pH 4.5, * = clear solution, not equilibrium value, read-out: Solubility
[10] = aqueous solution, pH 5, aqueous buffer, thermodynamic from solid, target pH 5.0, read-out: Solubility
[11] = aqueous solution, pH 5.5, aqueous buffer, thermodynamic from solid, target pH 5.5, read-out: Solubility
[12] = aqueous solution, pH adjusted with NaOH and HCl, pH 1.5, aqueous buffer, thermodynamic from solid, target pH 1.5, * = clear solution, not equilibrium value, read-out: Solubility
[13] = aqueous solution, pH adjusted with NaOH and HCl, pH 2, aqueous buffer, thermodynamic from solid, target pH 2.0, * = clear solution, not equilibrium value, read-out: Solubility
[14] = aqueous solution, pH adjusted with NaOH and HCl, pH 2.5, aqueous buffer, thermodynamic from solid, target pH 2.5, * = clear solution, not equilibrium value, read-out: Solubility
[15] = aqueous solution, pH adjusted with NaOH and HCl, pH 3, aqueous buffer, thermodynamic from solid, target pH 3.0, * = clear solution, not equilibrium value, read-out: Solubility
[16] = aqueous solution, pH adjusted with NaOH and HCl, pH 3.5, aqueous buffer, thermodynamic from solid, target pH 3.5, * = clear solution, not equilibrium value, read-out: Solubility
[17] = fasted state simulated gastric fluid (FaSSGF), pH 1.6, fassgf or other biorelevant, thermodynamic from solid, FaSSGF (pH 1.6), read-out: Solubility

Structure (SMILES): C[C@]1(O)C[C@@H](c2nc(-c3ccc4ccc(-c5ccccc5)nc4c3)c3c(N)nccn32)C1 [Edisylate 1]
PXRD result after storage at RT ([1]; 20 days, capped): no significant changes
PXRD result after storage at RT ([1]; 20 days, capped, listed as 2-4): Edisylate 1

Structure (SMILES): CCS(=O)(=O)O.C[C@]1(O)C[C@@H](c2nc(-c3ccc4ccc(-c5ccccc5)nc4c3)c3c(N)nccn32)C1 [Esylate 1]
solubility [2, 8]: 32.3 mg/mL
solubility [2, 9]: 36.6 mg/mL
solubility [2, 10]: 28.7 mg/mL
solubility [2, 11]: 0.0517 mg/mL
solubility [2, 12]: 64.3 mg/mL
solubility [2, 13]: 59.1 mg/mL
solubility [2, 14]: 47.3 mg/mL
solubility [2, 15]: 53 mg/mL
solubility [2, 16]: 31 mg/mL
Solubility compared to the free base and other salts ([2]; between pH 3 and pH 4): highest solubility
Solubility compared with the free base or Phosphate 1 ([2]; lower pH (<3)): significantly higher solubility
Final pH ([2]; target pH 1.5): 1.52
Final pH ([2]; target pH 2.0): 1.99
Final pH ([2]; target pH 2.5): 2.50
Final pH ([2]; target pH 3.0): 3.04
Final pH ([2]; target pH 3.5): 3.50
Final pH ([2]; target pH 4.0): 3.94
Final pH ([2]; target pH 4.5): 4.36
Final pH ([2]; target pH 5.0): 3.86
Final pH ([2]; target pH 5.5): 4.47
Final pH ([2]; target pH 6.0): 9.08
Final pH ([2]; target pH 6.5): 4.46
solubility ([2]; target pH 6.5): 0.0296 mg/mL
Final pH ([3]; FaSSGF (pH 1.6)): 3.30
Solubility compared with the free base ([3]; FaSSGF (pH 1.6)): highest solubility by a significant margin
Final pH ([3]; FaSSIF (pH 6.5)): 6.20
solubility ([3]; FaSSIF (pH 6.5)): 0.006 mg/mL
Solubility compared with the free base ([3]; FaSSIF (pH 6.5)): lower solubility
solubility [3, 17]: ≥ 61.6 mg/mL
Relative stability of the form in water activity slurries [4]: metastable

Structure (SMILES): CCS(=O)(=O)O.C[C@]1(O)C[C@@H](c2nc(-c3ccc4ccc(-c5ccccc5)nc4c3)c3c(N)nccn32)C1 [Esylate 5]
Relative stability of the form in interconversion slurries [5]: metastable

Structure (SMILES): C[C@]1(O)C[C@@H](c2nc(-c3ccc4ccc(-c5ccccc5)nc4c3)c3c(N)nccn32)C1 [Form B, reference compound]
PXRD result after storage at RT ([1]; 23 days): Form B (LC)

Structure (SMILES): C[C@]1(O)C[C@@H](c2nc(-c3ccc4ccc(-c5ccccc5)nc4c3)c3c(N)nccn32)C1 [Form I]
PXRD result after storage at RT ([1]; 20 days, capped, listed as 2-13): Form I

Structure (SMILES): C[C@]1(O)C[C@@H](c2nc(-c3ccc4ccc(-c5ccccc5)nc4c3)c3c(N)nccn32)C1 [Form J]
PXRD result after storage at RT ([1]; 17 days, capped): Form I
PXRD result after storage at RT ([1]; 20 days, capped): converted to Form I

Structure (SMILES): C[C@]1(O)C[C@@H](c2nc(-c3ccc4ccc(-c5ccccc5)nc4c3)c3c(N)nccn32)C1.Cl [HCl 1]
PXRD result after storage at RT ([1]; 17 days, capped): no significant changes
PXRD result after storage at RT ([1]; 17 days, capped, listed as 2-11): HCl 1

Structure (SMILES): C[C@]1(O)C[C@@H](c2nc(-c3ccc4ccc(-c5ccccc5)nc4c3)c3c(N)nccn32)C1.O=C(O)C[C@H](O)C(=O)O [L-Malate 2]
PXRD Results ([6]; listed as 4-45): Malate 2

More lines, now with the values ahead:

TGA Results (weight loss) ([7]; 90° C. to 139° C.): 0.6%, 90 °C to 139 °C
TGA Results (weight loss) ([7]; start to 90° C.): 3.0%, start to 90 °C
PXRD Results ([6]; listed as 4-22): Malate 3; LC
Structure (SMILES): C[C@]1(O)C[C@@H](c2nc(-c3ccc4ccc(-c5ccccc5)nc4c3)c3c(N)nccn32)C1.O=C(O)C[C@H](O)C(=O)O [L-Malate 3]

TGA Results (weight loss) ([7]; start to 61° C.): 4.2%, start to 61 °C
Structure (SMILES): C[C@]1(O)C[C@@H](c2nc(-c3ccc4ccc(-c5ccccc5)nc4c3)c3c(N)nccn32)C1.O=C(O)C[C@H](O)C(=O)O [L-Malate 6]

XRPD Results ([6]; polymorph screen starting from non-crystalline linsitinib L-malate, vapor stress, humidity stress, slurry or precipitation, listed as 4-66): Malate 9
Structure (SMILES): C[C@]1(O)C[C@@H](c2nc(-c3ccc4ccc(-c5ccccc5)nc4c3)c3c(N)nccn32)C1.O=C(O)C[C@H](O)C(=O)O [L-Malate 9]

solubility [2, 8]: 5.87 mg/mL
solubility [2, 9]: 3.04 mg/mL
solubility [2, 10]: 0.0458 mg/mL
solubility [2, 11]: 0.035 mg/mL
solubility ([2]; aqueous solution, pH 6, aqueous buffer, thermodynamic from solid, target pH 6.0, read-out: Solubility): 0.0046 mg/mL
solubility ([2]; aqueous solution, pH 6.5, aqueous buffer, thermodynamic from solid, target pH 6.5, read-out: Solubility): 0.001 mg/mL
solubility [2, 12]: 38.6 mg/mL
solubility [2, 13]: 25.9 mg/mL
solubility [2, 14]: 18.4 mg/mL
solubility [2, 15]: 14.9 mg/mL
solubility [2, 16]: 7.5 mg/mL
Final pH ([2]; target pH 1.5): 1.39
Final pH ([2]; target pH 2.0): 1.72
Final pH ([2]; target pH 2.5): 2.46
Final pH ([2]; target pH 3.0): 2.58
Final pH ([2]; target pH 3.5): 2.89
Final pH ([2]; target pH 4.0): 3.69
Final pH ([2]; target pH 4.5): 4.01
Final pH ([2]; target pH 5.0): 5.49
Final pH ([2]; target pH 5.5): 5.73
Final pH ([2]; target pH 6.0): 5.65
Final pH ([2]; target pH 6.5): 6.21
Final pH ([3]; FaSSGF (pH 1.6)): 2.74
Solubility compared with the free base ([3]; FaSSGF (pH 1.6)): largely comparable
Final pH ([3]; FaSSIF (pH 6.5)): 5.63
solubility [3, 17]: 9.51 mg/mL
solubility ([3]; fasted state simulated intestinal fluid (FaSSIF), pH 6.5, fassif, thermodynamic from solid, FaSSIF (pH 6.5), read-out: Solubility): 0.009 mg/mL
Structure (SMILES): C[C@]1(O)C[C@@H](c2nc(-c3ccc4ccc(-c5ccccc5)nc4c3)c3c(N)nccn32)C1.O=P(O)(O)O [Phosphate 1]
